Data: patent US8293774B2, “Optically active (R)-aryloxypropionic acid amides and herbicidal composition comprising same” (Kyung Nong Corporation, priority 2007, dated 2012)

What was measured:
[1] = system: DIGSA (Digitaria Sanguinalis (L.) SCOP, large crabgrass); assay: Weed control test, foliage treatment (Test Example 1, Table 7); format: in vivo
In short: (§1)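 Post-emergence foliar spray, 2,000 l/ha aqueous emulsion (compound:acetone:emulsifier 1:5:1 w/w), applied once barnyard grass reached 3-leaf stage; greenhouse 20 to 30° C, sandy loam. Visual injury 1 to 100% vs untreated, 10 and 20 d post-treatment.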

[2] = system: ECHOG (Echinoch crus-galli Beauv. var. caudata Kitagawa, barnyard grass); assay: as above; format: in vivo; details: 3-leaf stage
In short: as §1

[3] = system: PANDI (Panium dichotomiflorum Michx, fall panicum); assay: as above; format: in vivo
In short: as §1

[4] = system: SETVIR (Setaria viridis (L.) Beauv, green foxtail); assay: as above; format: in vivo
In short: as §1

[5] = system: ARTHIS (Arthraxon hispidus (Thunb.) Makino, creek grass); assay: as above; format: in vivo
In short: as §1

[6] = system: SORBI (Andropogon sorghum, common sorgum); assay: as above; format: in vivo
In short: as §1

[7] = system: ZEAMX (Zea mays L., corn); assay: as above; format: in vivo
In short: as §1

[8] = system: HORVU (Hordeum vulgare L., barley); assay: as above; details: barley, foliage treatment
[9] = system: TRZAW (Tritium aestivum L., wheat); assay: as above; details: wheat, foliage treatment
[10] = system: ORYSA (Oryza sativa cv. Dongjin, rice); assay: as above; details: rice, foliage treatment
[11] = system: GLXMA (Glycine max(L.) MERR, soy bean); assay: as above; details: soy bean, foliage treatment
Barnyard grass = assay: Weed control test, 4-leaf stage plants (Test Example 1, Table 8); format: in vivo, Echinoch crus-galli Beauv. var. caudata Kitagawa
Echinochloa oryzicola = assay: Foliage treatment with emulsions, dry rice field conditions (Test Example 2, Table 9); format: in vivo; details: 150 g a.i./ha; emulsion of Formulation Example 3; division stage 1~2; 20 days after foliage treatment
Source text: (§2) Seeds of rice (Nampyung rice) and barnyard grasses (Echinochloa oryzicola and Echinochloa crus-galli var. crus-galli) were placed in sandy loam of pots, covered with soil, and grown in the dry rice field conditions.
(§3) Rice (6˜6.5-leaf stage, plant height 33.2 cm) and barnyard grasses (Echinochloa oryzicola: division stage 1˜2, plant height 38.0 cm, Echinochloa crus-galli var. crus-galli: division stage 1˜2, plant height 44.1 cm) were subjected to a foliage treatment with emulsions prepared according to Formulation Example 3 by using compounds of Examples 1, 5 and 13 (purity: 99% or more), wherein the emulsions were sprayed to the plants at a dosage of the active compound of 150 g/ha.
(§4) The herbicidal effect on the barnyard grasses and harmful effect on the rice of the test compounds at 20 days and 30 days after the foliage treatment were visually evaluated as in Test Example 1 in comparison with the untreated control, and the results are shown in Table 9.

[12] = system: Echinochloa crus-galli var. crus-galli; assay: as above; format: in vivo; details: 150 g a.i./ha; emulsion of Formulation Example 3; division stage 1~2; 20 days after foliage treatment
Source text: as §2, §3, §4

rice (Nampyung rice) = assay: Foliage treatment with emulsions, dry rice field conditions, harmful effect on rice (Test Example 2, Table 9); format: in vivo; details: 6~6.5-leaf stage, 150 g a.i./ha, emulsion
Source text: as §2

Rice = assay: Weed control test, 4-leaf stage plants (Test Example 1, Table 8); details: 4-leaf stage
Protocol: Seeds of rice, wheat, soy bean, barley, corn, common sorgum, barnyard grass, large crabgrass, creek grass, green foxtail and fall panicum were placed in sandy loam in 600 cm^2 pots and covered with soil. After keeping the pots in a greenhouse at 20 to 30° C. allowing growth of the plants to the 3-leaf stage of the barnyard grass, 2,000 l/ha of an emulsion obtained by diluting with water a mixture of 1 part by weight of a test compound, 5 parts by weight of acetone and 1 part by weight of an emulsifying agent (Tween 80, Junsei) was applied to the surface of the foliage of the plants. The plant damage at 10 days and 20 days after the foliage treatment was visually evaluated from the level of 1 to 100% by comparison with the untreated control: […]

CCOC(=O)[C@@H](C)Oc1ccc(Oc2nc3ccc(Cl)cc3o2)cc1 [Phenoxaprop-P-ethyl, phenoxaprop-P-ethyl, reference compound]
Plant damage (herbicidal activity), visually evaluated, DIGSA ([1]; 0.025 kg/ha): 40% | Plant damage (herbicidal activity), visually evaluated, DIGSA ([1]; 0.1 kg/ha): 100% | Plant damage (herbicidal activity), visually evaluated, DIGSA ([1]; 0.2 kg/ha): 100% | Plant damage (herbicidal activity), visually evaluated, ECHOG ([2]; 0.025 kg/ha): 30% | Plant damage (herbicidal activity), visually evaluated, ECHOG ([2]; 0.1 kg/ha): 100% | Plant damage (herbicidal activity), visually evaluated, ECHOG ([2]; 0.2 kg/ha): 100% | Plant damage (herbicidal activity), visually evaluated, PANDI ([3]; 0.025 kg/ha): 30% | Plant damage (herbicidal activity), visually evaluated, PANDI ([3]; 0.1 kg/ha): 100% | Plant damage (herbicidal activity), visually evaluated, PANDI ([3]; 0.2 kg/ha): 100% | Plant damage (herbicidal activity), visually evaluated, SETVIR ([4]; 0.025 kg/ha): 20% | Plant damage (herbicidal activity), visually evaluated, SETVIR ([4]; 0.1 kg/ha): 100% | Plant damage (herbicidal activity), visually evaluated, SETVIR ([4]; 0.2 kg/ha): 100% | Plant damage (herbicidal activity), visually evaluated, ARTHIS ([5]; 0.025 kg/ha): 30% | Plant damage (herbicidal activity), visually evaluated, ARTHIS ([5]; 0.1 kg/ha): 100% | Plant damage (herbicidal activity), visually evaluated, ARTHIS ([5]; 0.2 kg/ha): 100% | Plant damage (herbicidal activity), visually evaluated, SORBI ([6]; 0.025 kg/ha): 50% | Plant damage (herbicidal activity), visually evaluated, SORBI ([6]; 0.1 kg/ha): 100% | Plant damage (herbicidal activity), visually evaluated, SORBI ([6]; 0.2 kg/ha): 100% | Plant damage (herbicidal activity), visually evaluated, ZEAMX ([7]; 0.025 kg/ha): 30% | Plant damage (herbicidal activity), visually evaluated, ZEAMX ([7]; 0.1 kg/ha): 100% | Plant damage (herbicidal activity), visually evaluated, ZEAMX ([7]; 0.2 kg/ha): 100% | Plant damage (herbicidal activity), visually evaluated, HORVU ([8]; 0.025 kg/ha): 0% | Plant damage (herbicidal activity), visually evaluated, HORVU ([8]; 0.1 kg/ha): 20% | Plant damage (herbicidal activity), visually evaluated, HORVU ([8]; 0.2 kg/ha): 40% | Plant damage (herbicidal activity), visually evaluated, TRZAW ([9]; 0.025 kg/ha): 0% | Plant damage (herbicidal activity), visually evaluated, TRZAW ([9]; 0.1 kg/ha): 10% | Plant damage (herbicidal activity), visually evaluated, TRZAW ([9]; 0.2 kg/ha): 10% | Plant damage (herbicidal activity), visually evaluated, ORYSA ([10]; 0.025 kg/ha): 0% | Plant damage (herbicidal activity), visually evaluated, ORYSA ([10]; 0.1 kg/ha): 0% | Plant damage (herbicidal activity), visually evaluated, ORYSA ([10]; 0.2 kg/ha): 0% | Plant damage (herbicidal activity), visually evaluated, GLXMA ([11]; 0.025 kg/ha): 0% | Plant damage (herbicidal activity), visually evaluated, GLXMA ([11]; 0.1 kg/ha): 0% | Plant damage (herbicidal activity), visually evaluated, GLXMA ([11]; 0.2 kg/ha): 0% | Plant damage (herbicidal activity), visually evaluated, Barnyard grass (Barnyard grass; 0.025 kg/ha): 90% | Plant damage (herbicidal activity), visually evaluated, Barnyard grass (Barnyard grass; 0.05 kg/ha): 100% | Plant damage (herbicidal activity), visually evaluated, Barnyard grass (Barnyard grass; 0.1 kg/ha): 100% | Plant damage (herbicidal activity), visually evaluated, Barnyard grass (Barnyard grass; 0.4 kg/ha): 100% | Herbicidal effect (0~100), 20 days, Echinochloa oryzicola (Echinochloa oryzicola): 100% | Herbicidal effect (0~100), 20 days, Echinochloa crus-galli var. crus-galli [12]: 100% | Harmful effect, 20 days (rice (Nampyung rice); 20 days after foliage treatment): 23% | Harmful effect, 30 days (rice (Nampyung rice); 30 days after foliage treatment): 38% | Plant damage (herbicidal activity), visually evaluated, Rice (Rice; 0.025 kg/ha): 20% | Plant damage (herbicidal activity), visually evaluated, Rice (Rice; 0.05 kg/ha): 30% | Plant damage (herbicidal activity), visually evaluated, Rice (Rice; 0.1 kg/ha): 70% | Plant damage (herbicidal activity), visually evaluated, Rice (Rice; 0.4 kg/ha): 80%
